One compound from US20250199015A1, “CYCLIN-DEPENDENT KINASE 2 INHIBITORS FOR MEDICAL TREATMENT” (INCYCLIX BIO, LLC, priority 2022, published 2025) can be followed below.

Molecules are shown by their SMILES. Where two headings read alike, the source gives them in different places. Some results are limits rather than exact numbers.

The target in one data set is T1, BCRP (Homo sapiens, UniProt Q9UNQ0).
T1 construct: expressed in transfected cells; inside-out membrane vesicles
The data set can be described thus: ABC transporter inhibition, inside-out membrane vesicles. Type of data set: in vitro ADME. How it is done:
The reaction was initiated with the addition of ATP or AMP to the solution and following the incubation time, the reaction was stopped by the addition of 200 μL of ice-cold washing buffer and immediate filtration via glass fiber filters mounted to a 96-well plate (filter plate). The filters were washed, dried, and the amount of substrate inside the filtered vesicles was determined by liquid scintillation counting. E3S (1 μM; Sigma-Aldrich E0251) for BCRP was used as positive control substrates.

The target of the next data set is T2, CYP2D6 (Homo sapiens, UniProt P10635).
T2 construct: human liver microsomes were incubated in the appropriate isoform-specific probe substrate; from tissue; host or cells: human liver microsomes
The data set can be described thus: CYP inhibition in human liver microsomes. Type of data set: in vitro ADME. Here is the method: (§1) The final DMSO content in the reaction mixtures was ≤0.2%. A selective inhibitor of each isoform was also screened as a positive control. Incubations were terminated by the addition of methanol. The quenched samples were incubated at 4° C. for 10 minutes and filtered by centrifugation for 1 minute at 500 rcf. The supernatants were removed, and the probe substrate metabolites were analyzed by LC-MS/MS.
(§2) The LC-MS/MS system consisted of an AB Sciex API5500 mass spectrometer coupled with an Agilent 1290 liquid chromatography system and an Agilent 1290 Infinity HTS chilled autosampler, controlled through Analyst software (AB Sciex). Samples were analyzed using the following solvent system and gradient: Acquity™ C18 Reverse Phase UPLC HSS T3 (1.8 μm) 2.1×50 mm column; 50° C. Column Temp.; 10 μL Injection Vol.; Mobile Phase A: Water+0.1% Formic Acid; Mobile Phase B: Acetonitrile+0.1% Formic Acid; Flow Rate: 0.6 mL/min.
In general terms: Microsomes from liver hold many membrane-bound enzymes, among them those of drug oxidation.

For the next data set, the target named is T3, CYP2C19 (Homo sapiens, UniProt P33261).
T3 construct: human liver microsomes were incubated in the appropriate isoform-specific probe substrate; from tissue; host or cells: human liver microsomes
The data set can be described thus: CYP inhibition in human liver microsomes. In kind it is in vitro ADME. How it is done: as §1, §2

A further data set concerns the target T4, CYP2C9 (Homo sapiens, UniProt P11712).
T4 construct: human liver microsomes were incubated in the appropriate isoform-specific probe substrate; from tissue; host or cells: human liver microsomes
In words: CYP inhibition in human liver microsomes. In kind it is in vitro ADME. How it is done: as §1, §2

The next data set has as its target T5, CYP2B6 (Homo sapiens, UniProt P20813).
T5 construct: human liver microsomes were incubated in the appropriate isoform-specific probe substrate; from tissue; host or cells: human liver microsomes
In words: CYP inhibition in human liver microsomes. Type of data set: in vitro ADME. Here is the method: as §1, §2

The target in the next data set is T6, CYP1A2 (Homo sapiens, UniProt P05177).
T6 construct: human liver microsomes were incubated in the appropriate isoform-specific probe substrate; from tissue; host or cells: human liver microsomes
The data set can be described thus: CYP inhibition in human liver microsomes. In kind it is in vitro ADME. How it is done: as §1, §2

A further data set has as its target T7, CYP2C8 (Homo sapiens, UniProt P10632).
T7 construct: human liver microsomes were incubated in the appropriate isoform-specific probe substrate; from tissue; host or cells: human liver microsomes
The data set can be described thus: CYP inhibition in human liver microsomes. Type of data set: in vitro ADME. Here is the method:
as §1, §2

The target in data set [1] is T8, CYP3A4 (testosterone as substrate) (Homo sapiens, UniProt P08684).
T8 construct: human liver microsomes were incubated in the appropriate isoform-specific probe substrate; from tissue; host or cells: human liver microsomes
The data set can be described thus: CYP inhibition in human liver microsomes. In kind it is in vitro ADME. How it is done:
as §1, §2

For data set [2], the target named is T9, CYP3A4 (midazolam as substrate) (Homo sapiens, UniProt P08684).
T9 construct: human liver microsomes were incubated in the appropriate isoform-specific probe substrate; from tissue; host or cells: human liver microsomes
In words: CYP inhibition in human liver microsomes. Type of data set: in vitro ADME. How it is done:
as §1, §2

For data set [3], the system named is CCNE1, CCNE2 in Hs68 cells. The data set can be described thus: Western blot cell cycle proteins. In kind it is cell-based, human. To be noted: 24 hours. Here is the method:
The H69 and H526 human lung carcinoma cell lines were grown in RPMI-1640/1× Glutamax/10% fetal bovine serum while the Hs68 Normal foreskin fibroblast cell line was grown in DMEM-high glucose/1× Glutamax/10% fetal bovine serum. […] Cells were collected by washing each well twice with cold PBS, then scraping cells in the presence of 150 μL cold RIPA with protease and phosphatase inhibitors. Lysates were clarified by centrifugation at 14,000×g for 10 min at 4° C. and supernatants transferred to clean tubes. A BCA assay was performed to determine the protein concentration of each lysate. A total of 30 μg of protein was mixed with sample buffer and reducing agent before being run on a 4-12% SDS-PAGE. Protein was transferred to a nitrocellulose membrane and blocked with LI-COR blocking buffer for 1 hour. Membranes were incubated overnight in primary antibody at 4° C. Following 3 washes with TBS-T, membranes were incubated for 45 minutes in LI-COR secondary antibodies. Following 2 washes in TBS-T, and one TBS wash, membranes were scanned using a LI-COR OdysseyCLx. Image studio was used for image analysis.
A general note: A western blot detects proteins with antibodies after separation by electrophoresis.

A further data set addresses T10, human OCT1 (Homo sapiens, UniProt O15245).
T10 construct: expressed in transfected cells; host or cells: HEK293
T10 sequence (O15245 1-554): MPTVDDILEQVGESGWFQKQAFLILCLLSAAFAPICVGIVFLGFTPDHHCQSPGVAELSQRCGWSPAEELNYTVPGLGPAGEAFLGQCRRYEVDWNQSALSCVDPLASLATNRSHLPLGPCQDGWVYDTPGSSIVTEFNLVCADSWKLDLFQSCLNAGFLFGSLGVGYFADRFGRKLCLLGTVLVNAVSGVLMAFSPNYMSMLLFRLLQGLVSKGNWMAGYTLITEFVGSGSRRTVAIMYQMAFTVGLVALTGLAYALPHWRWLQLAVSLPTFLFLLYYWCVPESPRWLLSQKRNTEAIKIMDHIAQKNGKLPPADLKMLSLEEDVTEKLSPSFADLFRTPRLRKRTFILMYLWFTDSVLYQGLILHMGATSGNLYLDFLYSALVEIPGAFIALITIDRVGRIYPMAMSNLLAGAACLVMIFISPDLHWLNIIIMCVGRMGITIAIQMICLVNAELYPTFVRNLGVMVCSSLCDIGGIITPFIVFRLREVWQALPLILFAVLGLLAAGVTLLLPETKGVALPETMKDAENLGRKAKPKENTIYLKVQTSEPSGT
In words: SLC transporter inhibition in HEK293 cells. Type of data set: in vitro ADME.

The next data set deals with CYP3A4 transcription. The data set can be described thus: CYP induction (transcription). To be noted: up to 3 μM, 24 hours. Type of data set: in vitro ADME.

T1 sequence (Q9UNQ0 whole entry): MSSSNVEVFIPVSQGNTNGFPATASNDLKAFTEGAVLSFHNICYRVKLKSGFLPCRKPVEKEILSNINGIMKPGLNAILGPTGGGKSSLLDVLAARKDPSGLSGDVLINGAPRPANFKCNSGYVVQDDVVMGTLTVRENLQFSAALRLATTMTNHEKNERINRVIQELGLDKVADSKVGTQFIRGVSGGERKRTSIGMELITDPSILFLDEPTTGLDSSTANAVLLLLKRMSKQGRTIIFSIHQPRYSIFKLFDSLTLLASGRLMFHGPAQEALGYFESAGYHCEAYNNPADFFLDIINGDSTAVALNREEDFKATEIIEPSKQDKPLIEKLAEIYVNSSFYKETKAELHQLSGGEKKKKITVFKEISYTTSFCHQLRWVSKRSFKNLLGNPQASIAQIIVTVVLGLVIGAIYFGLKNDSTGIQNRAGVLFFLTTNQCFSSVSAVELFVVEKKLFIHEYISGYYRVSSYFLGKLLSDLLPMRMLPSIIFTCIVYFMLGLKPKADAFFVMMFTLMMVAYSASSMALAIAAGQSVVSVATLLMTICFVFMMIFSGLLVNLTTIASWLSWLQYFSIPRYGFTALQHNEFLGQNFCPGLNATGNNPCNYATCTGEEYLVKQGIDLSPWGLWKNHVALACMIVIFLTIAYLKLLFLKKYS
T7 sequence (P10632 whole entry, canonical isoform): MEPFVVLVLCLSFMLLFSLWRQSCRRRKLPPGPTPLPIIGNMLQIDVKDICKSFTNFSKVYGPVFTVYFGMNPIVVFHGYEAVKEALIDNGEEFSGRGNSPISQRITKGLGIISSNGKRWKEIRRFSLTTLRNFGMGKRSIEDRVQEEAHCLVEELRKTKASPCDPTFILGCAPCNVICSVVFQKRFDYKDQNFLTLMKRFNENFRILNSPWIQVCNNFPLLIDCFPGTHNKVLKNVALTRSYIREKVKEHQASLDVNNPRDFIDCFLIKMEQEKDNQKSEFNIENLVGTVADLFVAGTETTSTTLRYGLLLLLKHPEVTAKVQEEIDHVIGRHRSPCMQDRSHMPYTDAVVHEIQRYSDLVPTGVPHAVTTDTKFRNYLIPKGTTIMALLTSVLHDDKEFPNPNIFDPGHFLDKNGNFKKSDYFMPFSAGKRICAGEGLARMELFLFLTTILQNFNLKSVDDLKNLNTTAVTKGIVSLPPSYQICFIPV
T9 sequence (P08684 whole entry, canonical isoform): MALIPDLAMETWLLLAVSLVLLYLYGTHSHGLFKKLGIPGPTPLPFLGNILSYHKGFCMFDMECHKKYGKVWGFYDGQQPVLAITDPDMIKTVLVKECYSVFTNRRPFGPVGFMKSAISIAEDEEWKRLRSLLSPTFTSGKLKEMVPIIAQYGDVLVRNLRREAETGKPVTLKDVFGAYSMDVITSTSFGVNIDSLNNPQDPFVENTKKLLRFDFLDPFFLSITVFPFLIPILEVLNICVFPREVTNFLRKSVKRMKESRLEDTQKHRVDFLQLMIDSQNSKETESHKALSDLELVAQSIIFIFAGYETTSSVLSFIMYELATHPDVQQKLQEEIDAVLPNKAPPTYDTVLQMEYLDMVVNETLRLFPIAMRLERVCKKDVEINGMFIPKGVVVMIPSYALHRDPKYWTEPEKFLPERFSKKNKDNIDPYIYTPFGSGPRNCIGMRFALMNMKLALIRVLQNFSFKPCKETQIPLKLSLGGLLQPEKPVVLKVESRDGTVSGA
T6 sequence (P05177 whole entry, canonical isoform): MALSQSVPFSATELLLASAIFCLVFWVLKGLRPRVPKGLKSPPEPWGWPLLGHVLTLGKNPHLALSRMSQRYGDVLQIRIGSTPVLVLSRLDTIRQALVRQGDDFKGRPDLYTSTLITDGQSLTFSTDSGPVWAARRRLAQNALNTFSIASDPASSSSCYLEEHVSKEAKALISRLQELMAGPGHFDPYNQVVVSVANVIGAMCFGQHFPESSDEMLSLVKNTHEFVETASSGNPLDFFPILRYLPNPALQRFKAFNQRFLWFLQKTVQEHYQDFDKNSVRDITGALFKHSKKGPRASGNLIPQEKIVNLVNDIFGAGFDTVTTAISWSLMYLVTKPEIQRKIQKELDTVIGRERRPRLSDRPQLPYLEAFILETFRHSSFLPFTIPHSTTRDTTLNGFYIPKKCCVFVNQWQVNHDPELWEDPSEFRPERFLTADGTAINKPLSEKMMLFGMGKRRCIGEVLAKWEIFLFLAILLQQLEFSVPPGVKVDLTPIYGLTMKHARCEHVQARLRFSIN
T5 sequence (P20813 whole entry, canonical isoform): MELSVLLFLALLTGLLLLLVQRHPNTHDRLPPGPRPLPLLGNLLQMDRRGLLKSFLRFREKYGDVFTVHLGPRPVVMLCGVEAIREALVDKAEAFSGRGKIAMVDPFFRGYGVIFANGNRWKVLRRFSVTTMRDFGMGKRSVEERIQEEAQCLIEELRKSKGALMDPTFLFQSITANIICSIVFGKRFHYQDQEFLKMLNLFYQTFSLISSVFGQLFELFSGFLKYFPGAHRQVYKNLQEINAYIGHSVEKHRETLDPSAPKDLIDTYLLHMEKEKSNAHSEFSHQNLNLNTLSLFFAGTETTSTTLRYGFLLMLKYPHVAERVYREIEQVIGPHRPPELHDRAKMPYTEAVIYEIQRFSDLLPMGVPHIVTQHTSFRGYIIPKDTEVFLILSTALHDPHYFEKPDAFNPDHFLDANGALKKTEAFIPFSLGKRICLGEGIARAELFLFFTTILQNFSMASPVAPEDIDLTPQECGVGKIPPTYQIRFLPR
T2 sequence (P10635 whole entry, canonical isoform): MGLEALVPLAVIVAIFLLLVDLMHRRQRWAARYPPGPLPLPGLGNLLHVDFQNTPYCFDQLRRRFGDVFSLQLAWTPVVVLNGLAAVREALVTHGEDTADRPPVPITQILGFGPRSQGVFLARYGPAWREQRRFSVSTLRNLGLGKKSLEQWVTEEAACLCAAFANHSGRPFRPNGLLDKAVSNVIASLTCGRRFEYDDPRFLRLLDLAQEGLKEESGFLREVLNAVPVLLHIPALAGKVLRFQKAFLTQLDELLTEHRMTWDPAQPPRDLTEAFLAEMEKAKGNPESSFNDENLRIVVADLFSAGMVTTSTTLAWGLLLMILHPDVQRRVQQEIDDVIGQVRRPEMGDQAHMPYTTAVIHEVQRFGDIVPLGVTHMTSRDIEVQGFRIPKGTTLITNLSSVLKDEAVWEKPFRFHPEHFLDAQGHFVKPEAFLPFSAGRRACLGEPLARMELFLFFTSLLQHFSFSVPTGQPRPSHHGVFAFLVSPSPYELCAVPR
T3 sequence (P33261 whole entry, canonical isoform): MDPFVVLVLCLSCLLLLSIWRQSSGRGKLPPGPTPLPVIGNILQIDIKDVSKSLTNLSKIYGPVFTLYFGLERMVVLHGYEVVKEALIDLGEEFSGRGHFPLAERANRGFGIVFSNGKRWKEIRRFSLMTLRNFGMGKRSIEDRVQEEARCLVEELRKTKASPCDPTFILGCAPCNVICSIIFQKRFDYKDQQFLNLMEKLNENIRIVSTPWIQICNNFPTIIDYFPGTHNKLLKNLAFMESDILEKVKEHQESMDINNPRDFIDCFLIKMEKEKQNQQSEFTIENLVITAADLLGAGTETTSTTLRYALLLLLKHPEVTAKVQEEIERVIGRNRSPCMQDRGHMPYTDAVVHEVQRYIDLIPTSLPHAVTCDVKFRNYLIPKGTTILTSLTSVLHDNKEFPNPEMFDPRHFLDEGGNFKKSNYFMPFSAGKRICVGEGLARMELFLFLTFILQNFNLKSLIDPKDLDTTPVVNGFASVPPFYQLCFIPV
T8 sequence (P08684 whole entry, canonical isoform): as the sequence (P08684 whole entry, canonical isoform) above
T4 sequence (P11712 whole entry, canonical isoform): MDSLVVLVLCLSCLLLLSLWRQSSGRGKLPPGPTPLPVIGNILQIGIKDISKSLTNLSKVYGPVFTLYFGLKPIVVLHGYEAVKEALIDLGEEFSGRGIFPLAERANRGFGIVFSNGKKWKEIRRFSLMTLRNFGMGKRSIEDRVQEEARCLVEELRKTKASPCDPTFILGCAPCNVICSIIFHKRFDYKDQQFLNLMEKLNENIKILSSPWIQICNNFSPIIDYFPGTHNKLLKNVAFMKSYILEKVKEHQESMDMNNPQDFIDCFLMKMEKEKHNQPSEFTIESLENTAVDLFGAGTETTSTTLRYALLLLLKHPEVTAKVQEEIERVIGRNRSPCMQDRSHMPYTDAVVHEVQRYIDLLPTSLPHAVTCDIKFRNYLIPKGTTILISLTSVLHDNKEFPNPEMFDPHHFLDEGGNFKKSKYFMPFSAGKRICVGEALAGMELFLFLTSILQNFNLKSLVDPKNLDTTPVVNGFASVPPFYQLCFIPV

For orientation: IC50 means the concentration that gives 50% inhibition. On to `NS(=O)(=O)c1ccc(Nc2ncc3cc4n(c3n2)C2(CCCCC2)C(=O)NN4)cc1` [Compound I], for which the IC50 against BCRP (BCRP, inside-out membrane vesicles) is 0.422 µM; against BCRP (human, inside-out membrane vesicles from cells overexpressing BCRP, probe E3S (1 μM)), 0.422 µM; on CYP2D6 (CYP2D6, substrate Dextromethorphan, human liver microsomes), above 25 µM; against CYP2C19 (pH 7.4, probe mephenytoin, CYP2C19, substrate Mephenytoin, human liver microsomes), 25 µM; against CYP2C9, 14.9 µM; on CYP2B6 (CYP2B6, substrate Bupropion, human liver microsomes), above 25 µM. For the same compound, the IC50 at CYP1A2 (CYP1A2, substrate Tacrine, human liver microsomes) is above 25 µM; against CYP2C8 (CYP2C8, substrate Amodiaquine, human liver microsomes), above 25 µM; in data set [1], 9.59 µM; in [2] (CYP3A4, substrate Midazolam, human liver microsomes) it was 24.3 µM; on human OCT1 (OCT1, HEK293 cells, read-out: IC50), 5.5 µM; at human OCT1 (read-out: OCT1 IC50), 5.5 µM. For the same compound, the CYP2D6 inhibition result on CYP2D6 (up to 25 μM) is “Marginal to no inhibition”. For the same compound, the CYP2C19 inhibition result at CYP2C19 (up to 25 μM) is on record as “Marginal to no inhibition”. Further, the CYP2B6 inhibition result at CYP2B6 (up to 25 μM) was “Marginal to no inhibition”. Also, the CYP1A2 inhibition result on CYP1A2 (up to 25 μM) is “Marginal to no inhibition”. Moreover, the CYP2C8 inhibition entry on CYP2C8 (up to 25 μM) is reported as “Marginal to no inhibition”. The “CYP3A4 inhibition (midazolam as substrate)” value in [2] (up to 25 μM) is listed as “Marginal to no inhibition”. Also, the “cyclin E (CCNE1, CCNE2) levels” value in data set [3] was “increase of cyclin E (CCNE1, CCNE2) amplification”. For the same compound, the “Maximum Percent inhibition” value at human OCT1 (OCT1, HEK293 cells) is listed as 89%. The “induction of CYP3A4 transcription” value with CYP3A4 transcription is “no observed induction”.
